Entries after “also recorded” stand apart in the source; their conditions may differ.

Data on 20 substances can be found in patent US9597407B2, “Targeted antimicrobial moieties” (C3 Jian, Inc., priority 2009, dated 2017).

One test concerns bacteria. Description: Binding of targeting peptides to microorganisms (Table 3). To be noted: peptide binding in aqueous buffers that varied depending on peptide solubility; preferably 1x PBS.
Another test concerns microorganisms. Description: Morphology, biofilm and growth disruption by peptides (Table 5). Format: cell-based. Details: key: A: Peptide aggregates; B: Less hyphal formation; Clumps; Diffuse clumps and small polyps; F: Diffuse growth; H: Thin; I: Growth inhibition; Microcolony formation; Rippled; Small polyps; Thick; W: Halo formation on top, microlonies on bottom. The source says:
In certain embodiments peptides that induce alterations in phenotype or other biological activities can also be used as antimicrobial effector moieties.

For the substance “PF-430 (AVVCGYLAYTATS; Peptide with targeting and/or antimicrobial activity)”, the “Target(s) (microorganisms bound by the targeting peptide)” value in the test on bacteria was “S. epidermidis; also recorded: M. luteus; also recorded: E. coli; also recorded: S. pneumoniae; also recorded: E. faecalis; also recorded: C. jeikeium; also recorded: C. jejuni”. In addition, the “Organism, effect (morphology, biofilm and growth disruption)” value in the test with microorganisms (MRSA) is reported as “MRSA (M)”; in the test on microorganisms (S. epidermidis), “S. epidermidis (M)”; in the test on microorganisms (S. pneumoniae), “S. pneumoniae (M)”.
Turning to “PF-433 (MRKEFHNVLSSGQLLADKRPARDYNRK; Peptide with targeting and/or antimicrobial activity)”, in the test with bacteria, the “Target(s) (microorganisms bound by the targeting peptide)” value is “S. epidermidis; also recorded: E. coli; also recorded: S. pneumoniae; also recorded: C. jeikeium”. The “Organism, effect (morphology, biofilm and growth disruption)” value in the test with microorganisms (S. pneumoniae) is reported as “S. pneumoniae (H)”.
On to “PF-434 (GQLLADKRPARDYNRK; Peptide with targeting and/or antimicrobial activity)”, for which, in the test on bacteria, the “Target(s) (microorganisms bound by the targeting peptide)” value is given as “S. epidermidis; also recorded: M. luteus; also recorded: S. pneumoniae; also recorded: C. jeikeium”. The “Organism, effect (morphology, biofilm and growth disruption)” value in the test on microorganisms (S. pneumoniae) was “S. pneumoniae (S)”.
Regarding “PF-584 (SYIKNLSNQKFLIAF; Peptide with targeting and/or antimicrobial activity)”, the “Target(s) (microorganisms bound by the targeting peptide)” value in the test with bacteria is “S. epidermidis and M. luteus and P. mirabilis and C. albicans and MRSA and S. pneumoniae and E. faecalis and C. jeikeium”. In addition, the “Organism, effect (morphology, biofilm and growth disruption)” value is on record as “C. jejuni (D)” in the test with microorganisms (C. jejuni); “E. coli (C)” with microorganisms (E. coli); “E. faecalis (D)” with microorganisms (E. faecalis); “MRSA (D)” in the test on microorganisms (MRSA); “S. epidermidis (C)” with microorganisms (S. epidermidis); “S. pneumoniae (D)” with microorganisms (S. pneumoniae).
On to “PF-585 (DYNHLLNVVQDWVNTN; Peptide with targeting and/or antimicrobial activity)”, for which the “Target(s) (microorganisms bound by the targeting peptide)” value in the test on bacteria was “S. epidermidis and E. coli and C. albicans and MRSA and S. pneumoniae and C. jeikeium”. Moreover, the “Organism, effect (morphology, biofilm and growth disruption)” value in the test with microorganisms (C. jejuni) was “C. jejuni (R)”; in the test on microorganisms (E. faecalis), “E. faecalis (A)”; with microorganisms (MRSA) it was “MRSA (S)”; in the test on microorganisms (S. epidermidis), “S. epidermidis (S)”; with microorganisms (S. pneumoniae), “S. pneumoniae (R)”.
With “PF-588 (ESVEAIKAKAIK; Peptide with targeting and/or antimicrobial activity)”, the “Target(s) (microorganisms bound by the targeting peptide)” value with bacteria is listed as “S. epidermidis; also recorded: E. coli; also recorded: C. albicans; also recorded: E. faecalis; also recorded: C. jeikeium; also recorded: C. jejuni”. Moreover, the “Organism, effect (morphology, biofilm and growth disruption)” value with microorganisms (E. faecalis) was “E. faecalis (A)”.
On to “PF-590 (YYQAKLFPLL; Peptide with targeting and/or antimicrobial activity)”, for which the “Target(s) (microorganisms bound by the targeting peptide)” value with bacteria is on record as “S. epidermidis; also recorded: M. luteus; also recorded: E. coli; also recorded: E. faecalis; also recorded: C. jeikeium”. Further, in the test on microorganisms (C. jejuni), the “Organism, effect (morphology, biofilm and growth disruption)” value was “C. jejuni (R)”.
Turning to “PF-593 (MEISTLKKEKLHVKDELSQYLANYKK; Peptide with targeting and/or antimicrobial activity)”, the “Target(s) (microorganisms bound by the targeting peptide)” value in the test on bacteria is reported as “C. jeikeium”. The “Organism, effect (morphology, biofilm and growth disruption)” value in the test with microorganisms (E. faecalis) was “E. faecalis (A)”.
For the substance “PF-594 (IVSAIV; Peptide with targeting and/or antimicrobial activity)”, in the test with bacteria, the “Target(s) (microorganisms bound by the targeting peptide)” value was “C. jeikeium”. Moreover, the “Organism, effect (morphology, biofilm and growth disruption)” value with microorganisms (E. faecalis) is “E. faecalis (C)”.
In the case of “PF-596 (SKMWDKILTILILILELIRELIKL; Peptide with targeting and/or antimicrobial activity)”, the “Target(s) (microorganisms bound by the targeting peptide)” value in the test with bacteria was “S. epidermidis and M. luteus and P. mirabilis and E. coli and P. aeruginosa and MRSA and E. faecalis”. Moreover, the “Organism, effect (morphology, biofilm and growth disruption)” value in the test with microorganisms (C. jejuni) was “C. jejuni (D)”; with microorganisms (E. coli), “E. coli (C)”; with microorganisms (E. faecalis) it was “E. faecalis (D)”; in the test on microorganisms (MRSA), “MRSA (D)”; in the test on microorganisms (S. epidermidis), “S. epidermidis (D)”; with microorganisms (S. pneumoniae), “S. pneumoniae (D)”.
Take “PF-598 (MKFMLEVRNKAISAYKEITRTQI; Peptide with targeting and/or antimicrobial activity)”: in the test with bacteria, the “Target(s) (microorganism bound by the targeting peptide)” value was “S. epidermidis and M. luteus and P. mirabilis and P. aeruginosa and C. albicans and MRSA and S. pneumoniae and C. jeikeium”. The “Organism, effect (morphology, biofilm and growth disruption)” value in the test with microorganisms (C. jejuni) is given as “C. jejuni (R)”; in the test with microorganisms (E. coli) it was “E. coli (C)”; in the test on microorganisms (E. faecalis) it was “E. faecalis (R)”; in the test with microorganisms (MRSA), “MRSA (D)”; in the test on microorganisms (S. epidermidis) it was “S. epidermidis (R)”; in the test on microorganisms (S. pneumoniae), “S. pneumoniae (R)”.
As to “PF-599 (LFEIFKPKH; Peptide with targeting and/or antimicrobial activity)”, the “Target(s) (microorganism bound by the targeting peptide)” value in the test on bacteria was “S. epidermidis and P. mirabilis and E. coli and C. albicans and MRSA and S. pneumoniae and C. jeikeium”. Further, the “Organism, effect (morphology, biofilm and growth disruption)” value in the test on microorganisms (C. jejuni) is “C. jejuni (R)”; in the test with microorganisms (E. faecalis) it was “E. faecalis (A)”; with microorganisms (MRSA) it was “MRSA (C)”; with microorganisms (S. epidermidis) it was “S. epidermidis (M)”; in the test with microorganisms (S. pneumoniae), “S. pneumoniae (R)”.
Consider “PF-601 (YRVTVKALE; Peptide with targeting and/or antimicrobial activity)”, for which, in the test with bacteria, the “Target(s) (microorganism bound by the targeting peptide)” value is reported as “C. jeikeium”. The entries for the “Organism, effect (morphology, biofilm and growth disruption)” value in the test with microorganisms (C. jejuni) and in the test with microorganisms (E. faecalis) were “C. jejuni (A)” and “E. faecalis (A)”, respectively.
For the substance “PF-602 (LEKEKKEYIEKLFKTK; Peptide with targeting and/or antimicrobial activity)”, in the test on bacteria, the “Target(s) (microorganism bound by the targeting peptide)” value was “P. mirabilis; also recorded: C. jeikeium”. Moreover, the “Organism, effect (morphology, biofilm and growth disruption)” value in the test with microorganisms (E. faecalis) is “E. faecalis (A)”.
“PF-604 (LMEQVEV; Peptide with targeting and/or antimicrobial activity)”: the “Target(s) (microorganism bound by the targeting peptide)” value in the test on bacteria was “S. epidermidis; also recorded: C. albicans; also recorded: C. jeikeium”. In addition, the “Organism, effect (morphology, biofilm and growth disruption)” value with microorganisms (E. faecalis) is reported as “E. faecalis (A)”.
With “PF-607 (YIESDPRKFDYIFGAIRDH; Peptide with targeting and/or antimicrobial activity)”, the “Target(s) (microorganism bound by the targeting peptide)” value in the test on bacteria was “S. epidermidis and P. mirabilis and E. coli and MRSA and S. pneumoniae and C. jeikeium”. Moreover, the “Organism, effect (morphology, biofilm and growth disruption)” value in the test with microorganisms (C. jejuni) is recorded as “C. jejuni (R)”; with microorganisms (E. faecalis), “E. faecalis (A)”; in the test with microorganisms (MRSA), “MRSA (S)”; in the test with microorganisms (S. epidermidis), “S. epidermidis (M)”; in the test on microorganisms (S. pneumoniae), “S. pneumoniae (R)”.
In the case of “PF-609 (TEIKLDNNEYLVLNLDDILGILK; Peptide with targeting and/or antimicrobial activity)”, the “Target(s) (microorganism bound by the targeting peptide)” value in the test with bacteria is recorded as “P. mirabilis; also recorded: E. coli; also recorded: S. pneumoniae”. Further, the “Organism, effect (morphology, biofilm and growth disruption)” value is recorded as “C. jejuni (R)” in the test on microorganisms (C. jejuni), “E. faecalis (A)” with microorganisms (E. faecalis), “MRSA (C)” in the test with microorganisms (MRSA) and “S. pneumoniae (R)” in the test with microorganisms (S. pneumoniae).
Consider “PF-613 (ADEFAKL; Peptide with targeting and/or antimicrobial activity)”, for which the “Target(s) (microorganism bound by the targeting peptide)” value in the test on bacteria is recorded as “C. jeikeium”. Also, the “Organism, effect (morphology, biofilm and growth disruption)” value in the test with microorganisms (E. faecalis) is reported as “E. faecalis (A)”; with microorganisms (MRSA), “MRSA (C)”; in the test with microorganisms (S. epidermidis), “S. epidermidis (R)”.
As for “PF-629 (chain 1 GLAAIATVFALY; chain 2 GLAAIATVFALY; Peptide with targeting and/or antimicrobial activity)”, the “Target(s) (microorganism bound by the targeting peptide)” value in the test with bacteria is “S. epidermidis and P. aeruginosa and C. albicans and MRSA and S. pneumoniae and E. faecalis and C. jeikeium”. Besides, the “Organism, effect (morphology, biofilm and growth disruption)” value is recorded as “C. jeikeium (R)” in the test on microorganisms (C. jeikeium); “E. faecalis (R)” with microorganisms (E. faecalis); “MRSA (D)” in the test with microorganisms (MRSA); “S. epidermidis (C)” with microorganisms (S. epidermidis); “S. pneumoniae (M)” in the test on microorganisms (S. pneumoniae).
With “PF-631 (chain 1 LIIYFSKTGNTARATRQI; chain 2 LIIYFSKTGNTARATRQI; Peptide with targeting and/or antimicrobial activity)”, in the test on bacteria, the “Target(s) (microorganism bound by the targeting peptide)” value was “S. epidermidis and P. aeruginosa and C. albicans and MRSA and S. pneumoniae and E. faecalis and C. jeikeium”. The “Organism, effect (morphology, biofilm and growth disruption)” value with microorganisms (E. faecalis) is given as “E. faecalis (H)”; in the test with microorganisms (S. pneumoniae) it was “S. pneumoniae (I)”.
